Target: Lanosterol 14-alpha demethylase (Candida albicans (strain SC5314 / ATCC MYA-2876) (Yeast), UniProt P10613)
Experiment: Anticandida activity- (MIC90 compound) / (MIC90 bifonazole)
Assay type: functional

Chain of Lanosterol 14-alpha demethylase (P10613 whole entry): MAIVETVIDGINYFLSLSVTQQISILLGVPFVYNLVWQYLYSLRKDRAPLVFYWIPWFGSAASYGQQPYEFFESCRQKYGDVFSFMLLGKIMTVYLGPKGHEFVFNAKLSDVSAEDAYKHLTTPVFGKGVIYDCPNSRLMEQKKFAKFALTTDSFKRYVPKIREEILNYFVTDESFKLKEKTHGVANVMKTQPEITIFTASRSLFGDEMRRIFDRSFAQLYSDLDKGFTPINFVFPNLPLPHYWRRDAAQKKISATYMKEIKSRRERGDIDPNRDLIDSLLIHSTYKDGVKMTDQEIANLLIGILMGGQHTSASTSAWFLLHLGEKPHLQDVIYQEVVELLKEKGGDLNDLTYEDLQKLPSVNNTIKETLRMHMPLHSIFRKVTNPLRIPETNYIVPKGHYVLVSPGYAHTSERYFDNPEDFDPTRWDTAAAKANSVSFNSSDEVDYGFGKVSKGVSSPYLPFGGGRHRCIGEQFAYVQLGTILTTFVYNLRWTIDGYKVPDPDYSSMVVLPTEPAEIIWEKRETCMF

Compound	Ratio
COc1ccc([C@H](Cc2ccc(Cl)cc2)n2ccnc2)cc1	4
COc1ccc([C@@H](Cc2ccc(Cl)cc2Cl)n2ccnc2)cc1	3.6
COc1ccc([C@H](Cc2cccc(-n3cccc3)c2)n2ccnc2)cc1	58
COc1ccc([C@H](Cc2ccccc2F)n2ccnc2)cc1	63
COc1ccc([C@H](Cc2ccccc2Cl)n2ccnc2)cc1	63
COc1ccc([C@H](Cc2ccc(Cl)cc2)n2cnnc2)cc1	63
COc1ccc([C@H](Cc2ccc(N)cc2)n2ccnc2)cc1	2.1
COc1ccc([C@H](Cc2ccc(F)cc2)n2ccnc2)cc1	16
Clc1ccc(-c2cn(Cc3ccc(Cl)cc3Cl)cc2[C@@H](c2ccccc2)n2ccnc2)cc1	40
Clc1ccc(Cn2cc(-c3ccccc3)c([C@@H](c3ccccc3)n3ccnc3)c2)c(Cl)c1	22
COc1ccc(-c2cn(Cc3ccc(Cl)cc3Cl)cc2[C@@H](c2ccccc2)n2ccnc2)cc1	41
Fc1ccc(-c2c[nH]cc2[C@@H](c2ccccc2)n2ccnc2)cc1	1
Clc1ccc(-c2c[nH]cc2[C@@H](c2ccccc2)n2ccnc2)cc1	0.46
Fc1ccc([C@@H](c2ccn(-c3ccc(F)cc3)c2)n2ccnc2)cc1	1
Cc1ccc([C@H](c2ccn(-c3ccc(Cl)cc3)c2)n2ccnc2)cc1	0.89
Fc1ccc(-n2ccc([C@@H](c3ccccc3)n3ccnc3)c2)cc1	4
Cc1ccc([C@H](c2ccn(-c3ccc(F)cc3)c2)n2ccnc2)cc1	1.9
Cn1cc(-c2ccc(F)cc2)c([C@@H](c2ccccc2)n2ccnc2)c1	4
Cc1ccc(-c2cn(Cc3ccc(Cl)cc3Cl)cc2[C@@H](c2ccccc2)n2ccnc2)cc1	42
Cn1cc(-c2ccccc2)c([C@H](c2ccccc2)n2ccnc2)c1	4
Cc1ccc(-c2cn(C)cc2[C@@H](c2ccccc2)n2ccnc2)cc1	3.8
COc1ccc([C@H](Cc2ccccc2-n2cccc2)n2ccnc2)cc1	7.2
COc1ccc(C[C@@H](c2ccc(OC)cc2)n2cnnc2)cc1	64
COc1ccc([C@H](Cc2ccccc2[N+](=O)[O-])n2ccnc2)cc1	123
COc1ccc([C@H](Cc2cccc(F)c2)n2ccnc2)cc1	66
Cn1cc(-c2ccc(Cl)cc2)c([C@@H](c2ccccc2)n2ccnc2)c1	0.9

Compound	Ratio
Fc1ccc([C@H](c2ccn(-c3ccccc3)c2)n2ccnc2)cc1	2
Fc1ccc(-n2ccc([C@H](c3ccc(Cl)cc3)n3ccnc3)c2)cc1	1.8
COc1ccc([C@H](Cc2cccc(Cl)c2)n2ccnc2)cc1	32
COc1ccc(C[C@@H](c2ccc(OC)cc2)n2ccnc2)cc1	8
COc1ccc([C@H](Cc2ccc([N+](=O)[O-])cc2)n2ccnc2)cc1	32
Clc1ccc(-n2ccc([C@@H](c3ccccc3)n3ccnc3)c2)cc1	0.5
Fc1ccc([C@@H](c2ccn(-c3ccc(Cl)cc3)c2)n2ccnc2)cc1	1.8
Clc1ccc([C@@H](c2ccn(-c3ccc(Cl)cc3)c2)n2ccnc2)cc1	3
Cc1ccc([C@H](c2ccn(-c3ccccc3)c2)n2ccnc2)cc1	1
c1ccc([C@H](c2ccn(-c3ccccc3)c2)n2ccnc2)cc1	4.1
Nc1ccc([C@@H](c2ccccc2)n2ccnc2)cc1	2.5
Clc1ccc([C@@H](c2ccc(-n3cccc3)cc2)n2ccnc2)cc1	0.5
Cc1ccc([C@H](c2ccc([N+](=O)[O-])cc2)n2ccnc2)cc1	0.5
O=[N+]([O-])c1ccc([C@@H](c2ccc(Cl)cc2)n2ccnc2)cc1	1
Cc1ccc([C@@H](c2ccc(NC(=O)c3ccc(Cl)cc3Cl)cc2)n2ccnc2)cc1	0.7
Cc1ccc([C@@H](c2ccc(-n3cccc3)cc2)n2ccnc2)cc1	0.13
O=[N+]([O-])c1ccc([C@@H](c2ccccc2)n2ccnc2)cc1	2.2
c1ccc([C@@H](c2ccc(-n3cccc3)cc2)n2ccnc2)cc1	0.25
CCC(c1ccc(Cl)cc1)[C@@H](c1ccc(OC)cc1)n1cncn1 (stereo partly specified)	29
CC[C@@H](c1ccc(Cl)cc1)[C@@H](c1ccc(OC)cc1)n1cnnc1	63
COc1ccc([C@@H]([C@@H](Cc2ccc(Cl)cc2Cl)c2ccc(Cl)cc2)n2cncn2)cc1	62
CC[C@@H](c1ccc([N+](=O)[O-])cc1)[C@H](c1ccc(OC)cc1)n1ccnc1	7.3
COc1ccc([C@@H]([C@@H](Cc2ccc(Cl)cc2Cl)c2ccc(Cl)cc2)n2ccnc2)cc1	10.5
COc1ccc([C@H]([C@@H](Cc2ccc(Cl)cc2Cl)c2ccc(OC)cc2)n2ccnc2)cc1	21
COc1ccc([C@H](Cc2ccccc2Cl)n2cncn2)cc1	32

Reference: ChEMBL document CHEMBL1135477, “Antifungal agents. 10. New derivatives of 1-[(aryl)[4-aryl-1H-pyrrol-3-yl]methyl]-1H-imidazole, synthesis, anti-candida activity, and quantitative structure-analysis relationship studies” (J Med Chem, 2002)
